From patent US20240317801A1, “PEPTIDOMIMETIC MATRIPTASE 2 INHIBITORS AND USES THEREOF” (Disc Medicine, Inc., priority 2020, published 2024)

Target: T1, Human Recombinant Matriptase 2 (Homo sapiens, UniProt Q8IU80)
T1 construct: purchased Enzo Life Sciences ALX-201-752-1
T1 sequence (Q8IU80 1-811): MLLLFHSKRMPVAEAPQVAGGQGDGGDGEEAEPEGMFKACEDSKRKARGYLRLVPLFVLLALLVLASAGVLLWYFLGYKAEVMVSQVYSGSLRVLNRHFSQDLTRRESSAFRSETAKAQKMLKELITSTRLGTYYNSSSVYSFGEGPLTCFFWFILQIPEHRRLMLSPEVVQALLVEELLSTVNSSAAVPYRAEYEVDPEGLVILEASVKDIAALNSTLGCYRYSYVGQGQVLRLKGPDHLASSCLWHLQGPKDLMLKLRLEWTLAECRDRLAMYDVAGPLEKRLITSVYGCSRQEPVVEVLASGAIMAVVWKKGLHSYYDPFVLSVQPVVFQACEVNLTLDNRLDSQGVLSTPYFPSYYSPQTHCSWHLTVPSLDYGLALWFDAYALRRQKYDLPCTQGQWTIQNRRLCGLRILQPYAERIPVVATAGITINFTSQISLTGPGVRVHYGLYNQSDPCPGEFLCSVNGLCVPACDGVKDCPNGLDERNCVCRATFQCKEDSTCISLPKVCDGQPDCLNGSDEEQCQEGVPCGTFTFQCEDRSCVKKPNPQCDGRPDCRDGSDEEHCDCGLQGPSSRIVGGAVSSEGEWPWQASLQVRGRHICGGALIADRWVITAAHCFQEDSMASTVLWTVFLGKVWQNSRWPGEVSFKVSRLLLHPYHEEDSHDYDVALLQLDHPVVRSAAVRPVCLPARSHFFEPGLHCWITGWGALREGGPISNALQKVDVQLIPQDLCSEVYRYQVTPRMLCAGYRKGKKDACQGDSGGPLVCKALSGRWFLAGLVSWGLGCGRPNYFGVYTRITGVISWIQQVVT
Test: Matriptase 2 fluorescence-based inhibition assay (Boc-Gln-Ala-Arg-AMC substrate)
Format: biochemical
Settings: Ki derived from measured IC50 using Cheng-Prusoff equation; 30 min preincubation, 100 μM substrate, 25° C., pH 7.5; read-out: Mat-2 Ki
Experimental: Test compounds were evaluated for their potential to inhibit Human Recombinant Matriptase 2 (in-house and commercial protein from Enzo Life Sciences—cat log—ALX-201-752-1) using fluorescence-based assay. The concentration of Recombinant Matriptase 2 and the substrate used in the assay were: 7 nM (commercial) and 15 nM (In-house Matriptase 2) and 100 μM (Boc-Gln-Ala-Arg-7-amido-4-methyl coumarin hydrobromide—Cat log: B4153-Sigma and I-1550 from Bachem) respectively. The assay buffer used comprised 50 mM TRIS pH 7.5, 150 mM NaCl, 0.01% gelatin (G1393 Sigma). The assay was performed by using 384 well black flat bottom plate from Grenier (Cat log: 781076) at 25° C. The enzyme and the test compound were preincubated for 30 mins, and the plate was read at wavelength Ex: 360/Em:480 nm60 mins after substrate addition. The final assay volume of was 20 μl. Stock solution of compounds were initially prepared in DMSO, which were appropriately diluted for screening to determine IC50 determination (final DMSO conc in the assay was 1%). All the measurements were carried out using the Spectramax M5, Molecular devices. The test compounds were screened at 1 and 10 μM concentrations and IC50 was determined for the interested compounds.
Ki is the binding affinity of an inhibitor. Mat-2 Ki as described herein is the binding affinity of an inhibitor such as a compound as described and provided herein to Mat-2. Mat-2 Ki values are derived from the measured IC50. To determine IC50 values, dose-response curves were generated by plotting percentage inhibition as a function of inhibitor concentration and the data was fitted to a sigmoidal non-linear regression equation (variable slope) using Graph Pad Prism software V7. Mat-2 Ki values as described herein were derived from the IC50 using the Cheng-Prusoff equation, which is understood and appreciated by one the skill in the art. The Mat-2 Ki values of tested compounds as described herein are shown in Table A. Accordingly, the compounds can be used to inhibit matriptase 2 and treat diseases and conditions associated with matriptase 2, such as those described herein.

| Ki [µM] | Compound |
| --- | --- |
| ≤ 0.1 | N=C(N)NCCC[C@H](NC(=O)C1(NC(=O)[C@H](CCc2ccccc2)NC(=O)CCc2ccccc2)CCC1)C(=O)C(=O)NC1CC1 |
| ≤ 0.1 | CO[C@@H]1CC(C(=O)N[C@@H](CCCNC(=N)N)C(=O)C(=O)NC(C)(C)C)N(C(=O)[C@H](Cc2cscn2)NC(=O)OCc2ccccc2)C1 (stereo partly shown) |
| 0.1 to 1 | C[C@@H](O)[C@H](NC(=O)[C@H](CCc1ccccc1)NC(=O)CCc1ccccc1)C(=O)N[C@@H](CC1CCN(C(=N)N)CC1)C(=O)C(=O)NC1CC1 [(3S)-4-(1-carbamimidoylpiperidin-4-yl)-N-cyclopropyl-2-oxidanylidene-3-[[(2S,3R)-3-oxidanyl-2-[[(2S)-4-phenyl-2-(3-phenylpropanoylamino)butanoyl]amino]butanoyl]amino]butanamide] |
| ≤ 0.1 | CO[C@H](C)[C@H](NC(=O)[C@H](Cc1cscn1)NC(=O)OC(C)C)C(=O)NC(CCCNC(=N)N)C(=O)C(=O)NC(C)(C)C (stereo partly shown) |
